How the values were obtained:
[1] = system: HCT-116; experiment: Antiproliferative activity against human HCT-116 assessed as reduction in cell viability measured after 48 hrs by MTT assay; format: functional, cell-based; conditions: HCT-116, 48 h
[2] = system: HeLa; experiment: Antiproliferative activity against human HeLa assessed as reduction in cell viability measured after 48 hrs by MTT assay; format: functional, cell-based
[3] = system: A549; experiment: Antiproliferative activity against human A549 assessed as reduction in cell viability measured after 48 hrs by MTT assay; format: functional, cell-based; conditions: A549, 48 h
[4] = system: MCF7; experiment: Antiproliferative activity against human MCF7 assessed as reduction in cell viability measured after 48 hrs by MTT assay; format: functional, cell-based; conditions: MCF7, 48 h
[5] = Metabolic stability in human liver microsomes assessed as half life; format: ADME, Microsome
[6] = Metabolic stability in human liver microsomes assessed as parent compound remaining after 60 mins; format: ADME, Microsome; conditions: read-out: Stability
[7] = Metabolic stability in human liver microsomes assessed as parent compound remaining after 15 mins; format: ADME, Microsome; conditions: read-out: Stability
[8] = Metabolic stability in human liver microsomes assessed as parent compound remaining after 30 mins; format: ADME, Microsome; conditions: read-out: Stability
[9] = Metabolic stability in human liver microsomes assessed as parent compound remaining after 90 mins; format: ADME, Microsome; conditions: read-out: Stability
[10] = Metabolic stability in human liver microsomes assessed as parent compound remaining measured immediately after compound addition; format: ADME, Microsome; conditions: read-out: Stability
[11] = system: HeLa; experiment: Induction of apoptosis in human HeLa cells assessed as viable cells at 5 nM incubated for 48 hrs by Annexin V and propidium iodide Staining based assay (reference value: 98.5 %); format: functional; conditions: read-out: Activity
[12] = system: HeLa; experiment: Induction of apoptosis in human HeLa cells assessed as late apoptotic cells at 5 nM incubated for 48 hrs by Annexin V and propidium iodide Staining based assay (reference value: 1 %); format: functional
[13] = system: HeLa; experiment: Induction of apoptosis in human HeLa cells assessed as necrotic cells at 5 nM incubated for 48 hrs by Annexin V and propidium iodide Staining based assay (reference value: 0.4%); format: functional
[14] = system: HeLa; experiment: Induction of apoptosis in human HeLa cells assessed as early apoptotic cells at 5 nM incubated for 48 hrs by Annexin V and propidium iodide Staining based assay (reference value: 0.2%); format: functional

| IC50 [1] | IC50 [2] | IC50 [3] | IC50 [4] | SMILES | also measured |
| --- | --- | --- | --- | --- | --- |
| 483 nM | 199 nM | 614 nM | 382 nM | COc1cc(-c2nnc3c(OCC(F)(F)F)cc(-c4ccc5c(ccn5C)c4)cn23)cc(OC)c1OC | – |
| 750 nM | 177 nM | 176 nM | 125 nM | COc1cc(-c2nnc3c(OC4CCC4)cc(-c4ccc5c(ccn5C)c4)cn23)cc(OC)c1OC | – |
| 1340 nM | 272 nM | 626 nM | 334 nM | CCOc1cc(-c2ccc3cc[nH]c3c2)cn2c(-c3cc(OC)c(OC)c(OC)c3)nnc12 | – |
| 5370 nM | 2780 nM | 9810 nM | 2470 nM | COc1cc(-c2nnc3c(OC4COC4)cc(-c4ccc5[nH]ccc5c4)cn23)cc(OC)c1OC | – |
| 1540 nM | 3970 nM | 478 nM | 5490 nM | C=C(c1cc(OC)c(OC)c(OC)c1)c1ccc2c(c1)c1ccccc1n2C | – |
| 1290 nM | 214 nM | 516 nM | 1900 nM | COc1cc(-c2nnc3c(OC4COC4)cc(-c4ccc5c(ccn5C)c4)cn23)cc(OC)c1OC | – |
| 2420 nM | 472 nM | 922 nM | 295 nM | CCOc1cc(-c2ccc3[nH]c4ccccc4c3c2)cn2c(-c3cc(OC)c(OC)c(OC)c3)nnc12 | – |
| > 10000 nM | > 10000 nM | > 10000 nM | > 10000 nM | COc1cc(-c2nnc3c(OC)cc(-c4ccc5[nH]cc(C=O)c5c4)cn23)cc(OC)c1OC | – |
| 675 nM | 211 nM | 234 nM | 378 nM | CCCN1CC(Oc2cc(-c3ccc4c(ccn4C)c3)cn3c(-c4cc(OC)c(OC)c(OC)c4)nnc23)C1 | – |
| 374 nM | 166 nM | 589 nM | 284 nM | CCOc1cc(-c2ccc3[nH]ccc3c2)cn2c(-c3cc(OC)c(OC)c(OC)c3)nnc12 | – |
| > 10000 nM | > 10000 nM | > 10000 nM | > 10000 nM | COc1cc(-c2cc(OC)c3nnc(-c4ccc5c(ccn5C)c4)n3c2)cc(OC)c1OC | – |
| 900 nM | 348 nM | 585 nM | 608 nM | COc1cc(-c2nnc3c(OCC(F)(F)F)cc(-c4ccc5[nH]ccc5c4)cn23)cc(OC)c1OC | – |
| 228 nM | 210 nM | 334 nM | 140 nM | CCOc1cc(-c2ccc3c(ccn3C)c2)cn2c(-c3cc(OC)c(OC)c(OC)c3)nnc12 | – |
| 402 nM | 503 nM | 322 nM | 204 nM | COc1cc(-c2nnc3c(OC(C)C)cc(-c4ccc5c(ccn5C)c4)cn23)cc(OC)c1OC | – |
| 108 nM | 85 nM | 167 nM | 80 nM | COc1cc(-c2nnc3c(OC)cc(-c4ccc5[nH]ccc5c4)cn23)cc(OC)c1OC | – |
| 135 nM | 97 nM | 168 nM | 118 nM | COc1cc(-c2nnc3c(OC4CC4)cc(-c4ccc5c(ccn5C)c4)cn23)cc(OC)c1OC | – |
| 21 nM | 8 nM | 15 nM | – | CC(=O)O[C@H]1C(=O)[C@@]2(C)[C@H]([C@H](OC(=O)c3ccccc3)[C@]3(O)C[C@H](OC(=O)[C@H](O)[C@@H](NC(=O)c4ccccc4)c4ccccc4)C(C)=C1C3(C)C)[C@]1(OC(C)=O)CO[C@@H]1C[C@@H]2O [PACLITAXEL] | – |
| > 10000 nM | > 10000 nM | > 10000 nM | > 10000 nM | COc1cc(-c2nnc3c(OC4CN(C(C)(C)C)C4)cc(-c4ccc5[nH]ccc5c4)cn23)cc(OC)c1OC | – |
| 291 nM | 240 nM | 349 nM | 239 nM | CCOc1cc(-c2ccc3ccn(C)c3c2)cn2c(-c3cc(OC)c(OC)c(OC)c3)nnc12 | – |
| 386 nM | 350 nM | 901 nM | 303 nM | CCOc1cc(-c2ccc3c(c2)c2ccccc2n3C)cn2c(-c3cc(OC)c(OC)c(OC)c3)nnc12 | – |
| > 10000 nM | > 10000 nM | > 10000 nM | > 10000 nM | COc1cc(-c2cc(OC)c3nnc(-c4ccc5[nH]ccc5c4)n3c2)cc(OC)c1OC | – |
| 1800 nM | 820 nM | 3080 nM | 1120 nM | COc1cc(-c2nnc3c(OC)cc(-c4ccc5c(c4)c(C=O)cn5C)cn23)cc(OC)c1OC | – |
| 939 nM | 261 nM | 1250 nM | 1020 nM | COc1cc(-c2nnc3c(OC(C)C)cc(-c4ccc5[nH]ccc5c4)cn23)cc(OC)c1OC | – |
| 694 nM | 142 nM | 232 nM | 267 nM | COc1cc(-c2nnc3c(OC4CCC4)cc(-c4ccc5[nH]ccc5c4)cn23)cc(OC)c1OC | – |
| 275 nM | 119 nM | 198 nM | 259 nM | COc1cc(-c2nnc3c(OC4CC4)cc(-c4ccc5[nH]ccc5c4)cn23)cc(OC)c1OC | – |

| SMILES | IC50 [1] | IC50 [2] | IC50 [3] | IC50 [4] | also measured |
| --- | --- | --- | --- | --- | --- |
| COc1ccc(/C=C/C=C\c2cc(OC)c(OC)c(OC)c2)cc1O | 42.3 nM | 62 nM | 118 nM | 75 nM | half-life [5]: 26.7 min; remaining at 1 h [6]: 12.5%; remaining at 0.25 h [7]: 47.7%; remaining at 0.5 h [8]: 26.3%; remaining at 1.5 h [9]: 9.2%; remaining at 0 min [10]: 100% |
| COc1cc2c(c(OC)c1OC)-c1ccc(OC)c(=O)cc1[C@@H](NC(C)=O)CC2 [COLCHICINE] | 83 nM | 103 nM | 111 nM | 48 nM | – |
| COc1ccc(/C=C\c2cc(OC)c(OC)c(OC)c2)cc1O [COMBRETASTATIN A4] | – | – | 15 nM | 10 nM | viability at 0.005 µM [11]: 6.7%; half-life [5]: 32.5 min; remaining at 1 h [6]: 26.1%; remaining at 0.25 h [7]: 75.6%; remaining at 0.5 h [8]: 54.1%; remaining at 1.5 h [9]: 15.4%; Activity [12]: 52.2%; Activity [13]: 2.6%; remaining at 0 min [10]: 100%; Activity [14]: 38.6% |

— ChEMBL document CHEMBL5055630, “Design, synthesis and biological evaluation of indole-based [1,2,4]triazolo[4,3-a] pyridine derivatives as novel microtubule polymerization inhibitors” (Eur J Med Chem, 2021)
